From patent publication US8415469B2, “Compounds and methods for kinase modulation, and indications therefor” (Plexxikon Inc., priority 2005, dated 2013)

Experiments:
Format in all cases: biochemical
Flt1 = target: T1, Flt1 (Homo sapiens, UniProt P17948); assay: AlphaScreen kinase assay, Flt1; conditions: read-out: IC50, activity toward kinase Flt1
T1 construct: P1826.pETN6 BI-PTP FLT1 M799-D1165-X WT; His6 (N); made in house; host or cells: E. coli (PTP1B co-expressed)
T1 sequence (P17948 with tags, fused parts or gaps): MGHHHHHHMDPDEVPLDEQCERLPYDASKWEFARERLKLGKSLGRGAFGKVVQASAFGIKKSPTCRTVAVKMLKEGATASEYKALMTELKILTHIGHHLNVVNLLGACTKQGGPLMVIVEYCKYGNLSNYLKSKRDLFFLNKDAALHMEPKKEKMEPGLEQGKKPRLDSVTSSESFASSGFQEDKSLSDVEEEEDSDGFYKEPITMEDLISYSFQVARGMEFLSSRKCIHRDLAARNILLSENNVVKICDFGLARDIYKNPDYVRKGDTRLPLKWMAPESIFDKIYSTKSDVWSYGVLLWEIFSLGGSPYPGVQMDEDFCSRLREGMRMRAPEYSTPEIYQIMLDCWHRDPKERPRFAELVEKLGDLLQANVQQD

MAP4K4 = MAP4K4 (Homo sapiens, UniProt O95819); assay: AlphaScreen kinase assay, MAP4K4; conditions: read-out: IC50, activity toward kinase MAP4K4
B-Raf V600E = target: T2, B-Raf V600E (Homo sapiens, UniProt P15056, V600E); assay: AlphaScreen kinase assay, B-Raf V600E; conditions: read-out: IC50, activity toward kinase B-Raf V600E
T2 construct: P4254. pFastBacBD-CDC37 BRAF D437-K722-X, V600E; His6 with pFastBac HT leader (TEV site) (N); made in house; host or cells: Sf9 (baculovirus; chaperone CDC37 co-expressed)

c-Raf-1 = target: T3, c-Raf-1 (Homo sapiens, UniProt P04049); assay: AlphaScreen kinase assay, c-Raf-1; conditions: read-out: IC50, activity toward kinase c-Raf-1
T3 construct: purchased Upstate Biotechnology

FGFR1 = target: T4, FGFR1 (Homo sapiens, UniProt P11362, C488A/C584S); assay: AlphaScreen kinase assay, FGFR1; conditions: read-out: IC50, activity toward kinase FGFR
T4 construct: P1351.pET N6 BI-PTP FGFR A458-E765-X C488A, C584S; made in house; host or cells: E. coli (PTP1B co-expressed)

Kit = target: T5, Kit (Homo sapiens, UniProt P10721); assay: AlphaScreen kinase assay, Kit; conditions: read-out: IC50, activity toward kinase Kit
T5 construct: P1332.N6 BI PTP KIT M552-K948-X COD; His6 (N); made in house; host or cells: E. coli (PTP1B co-expressed)

Fms = target: T6, Fms (Homo sapiens, UniProt P07333); assay: AlphaScreen kinase assay, Fms; conditions: read-out: IC50, activity toward kinase Fms
T6 construct: purchased Upstate Biotechnology

Ret = target: T7, Ret (Homo sapiens, UniProt P07949); assay: AlphaScreen kinase assay, Ret; conditions: read-out: IC50, activity toward kinase Ret
T7 construct: P1378.pET-SF BI-PTP RET H661-R1012 HIS; made in house
T7 sequence (P07949 with tags, fused parts or gaps): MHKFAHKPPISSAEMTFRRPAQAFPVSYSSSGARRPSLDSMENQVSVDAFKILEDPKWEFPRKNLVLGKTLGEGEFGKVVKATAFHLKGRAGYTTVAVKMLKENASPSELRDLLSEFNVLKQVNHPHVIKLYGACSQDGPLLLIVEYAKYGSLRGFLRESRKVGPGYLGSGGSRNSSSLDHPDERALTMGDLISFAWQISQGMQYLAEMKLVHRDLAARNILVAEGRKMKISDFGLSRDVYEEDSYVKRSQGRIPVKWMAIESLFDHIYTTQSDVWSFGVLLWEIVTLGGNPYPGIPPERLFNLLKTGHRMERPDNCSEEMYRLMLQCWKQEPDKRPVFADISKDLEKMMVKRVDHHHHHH

B-Raf = target: T8, B-Raf (Homo sapiens, UniProt P15056); assay: AlphaScreen kinase assay, B-Raf; conditions: read-out: IC50, activity toward kinase B-Raf
T8 construct: purchased Upstate Biotechnology

Fak = target: T9, Fak (Homo sapiens, UniProt Q05397); assay: AlphaScreen kinase assay, Fak; conditions: read-out: IC50, activity toward kinase Fak
T9 construct: P1358.pFastBacHtb FAK S411-Q686-X; His6 with pFastBacHTb leader (TEV site) (N); made in house; host or cells: Sf9 (baculovirus)

Yes = target: T10, Yes (Homo sapiens, UniProt P07947); assay: Z'-Lyte FRET kinase assay (Invitrogen), Yes; conditions: read-out: IC50, activity toward kinase Yes
T10 construct: purchased Invitrogen (Carlsbad, Calif.), screening service
Text: The effect of potential modulators of kinase activity can be measured in a variety of different assays known in the art. For example, direct radiometric, indirect FRET or AlphaScreen assays may be used to assess the level of phosphorylation of a substrate in the presence of test compounds in order to determine the inhibitory affect of the compound on the kinase. Invitrogen (Carlsbad, Calif.) uses a FRET based assay for Btk, EGFR, EphB2, Flt3, lrak4, Kdr, MAP2K1, MAPKAPK2, PDGFRB, PKC theta, Stk6 and Yes. For these assays, compounds of the invention were screened by Invitrogen using Z′-Lyte™ kinase assay.
Briefly, the Invitrogen kinase assay involves use of a specific peptide substrate optimized for each kinase, containing a fluorophore at each end that make up the FRET pair. The peptide sensitivity to proteolytic cleavage depends on phosphorylation of the peptide. Non-phosphorylated peptide is cleaved by a protease while peptide phosphorylated by the kinase is not cleaved. Cleavage of the peptide disrupts the FRET between the donor (coumarin) and acceptor (fluorescein) fluorophores, resulting in an increase in the ratio of donor emission to acceptor emission. The emission ratio of coumarin to fluorescein is used to assess the reaction progress. The extent of phosphorylation is determined from the emission ratio, which is low when the kinase is active (phosphorylated peptide is not cleaved, FRET pair connected) or higher for inhibited kinase (non-phosphorylated peptide is cleaved, FRET pair separated). Thus, the assay involves a kinase reaction in the presence of varying concentrations of a given compound, a development reaction with site specific protease, and detection of the fluorescent emission ratio of coumarin and fluorscein. […] Reaction conditions for each kinase are determined to provide optimal reaction times, incubation temperature, kinase and ATP concentrations. Test samples are made up in 1× kinase buffer (50 mM HEPES pH 7.5, 50 mM MgCl2, 5 mM EGTA, 0.05% BRIJ-35) and compound at desired concentration prepared in DMSO such that the final DMSO is 1%. […] Typically, assay plates are prepared to 10 μl final volume per sample, adding 2.5 μl of compound at 4× the desired concentration in 4% DMSO (serial dilution of compound provides concentration curve), 5 μl of the desired kinase mixed with Z′-LYTE™ peptide substrate (2× in 2× kinase buffer, final peptide at 2 μM), and 2.5 μl of 4×ATP solution. All kinase except for MAP2K1 were at 10 μM ATP in the kinase reaction, while MAP2K1 was at 100 μM. Samples are mixed and the kinase reaction is incubated 1 hour at room temperature, after which 5 μl of development solution is added and mixed. After incubation for another 1 hour at room temperature, 5 μl of stop reagent is added to each sample and mixed. The fluorescence signals are measured to determine the emission ratio.

Zap70 = target: T11, Zap70 (Homo sapiens, UniProt P43403); assay: AlphaScreen kinase assay, Zap70; conditions: read-out: IC50, activity toward kinase Zap70
T11 construct: P1868.pFastBac1 ZAP70 D327-G606 HIS, WT; His7 (HHHHHHH) (C); made in house
T11 sequence (P43403 with tags, fused parts or gaps): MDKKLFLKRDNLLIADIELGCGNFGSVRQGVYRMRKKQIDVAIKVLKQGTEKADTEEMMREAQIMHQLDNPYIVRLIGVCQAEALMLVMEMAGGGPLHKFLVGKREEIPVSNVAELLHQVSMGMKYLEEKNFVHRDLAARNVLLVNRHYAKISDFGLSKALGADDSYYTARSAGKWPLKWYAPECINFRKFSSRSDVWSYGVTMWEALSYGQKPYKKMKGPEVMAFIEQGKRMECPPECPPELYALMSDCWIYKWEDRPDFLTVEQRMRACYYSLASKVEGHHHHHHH
Text: AlphaScreen assay was used to screen additional kinases. The assay is similarly dependent on the phosphorylation of a peptide substrate. In this assay, an antibody that recognizes phosphorylated substrate is bound to an acceptor bead. The peptide substrate is attached to biotin, which binds to a donor head that contains streptavidin. Thus phosphorylated substrate is bound by antibody and streptavidin, bringing the donor and acceptor heads into close proximity when kinase is not inhibited. The donor produces singlet oxygen which results in emission from the acceptor when they are in close proximity. Conversely, when kinase is inhibited, the donor and acceptor beads are not associated and the emission from the acceptor is reduced.
AlphaScreen assays were done using compounds dissolved in DMSO to a concentration of 20 mM. The compounds were diluted accordingly to the desired final concentrations in each sample well, using 1:3 serial dilution for a total of 8 concentration points.

T5 sequence (P10721 with tags, fused parts or gaps): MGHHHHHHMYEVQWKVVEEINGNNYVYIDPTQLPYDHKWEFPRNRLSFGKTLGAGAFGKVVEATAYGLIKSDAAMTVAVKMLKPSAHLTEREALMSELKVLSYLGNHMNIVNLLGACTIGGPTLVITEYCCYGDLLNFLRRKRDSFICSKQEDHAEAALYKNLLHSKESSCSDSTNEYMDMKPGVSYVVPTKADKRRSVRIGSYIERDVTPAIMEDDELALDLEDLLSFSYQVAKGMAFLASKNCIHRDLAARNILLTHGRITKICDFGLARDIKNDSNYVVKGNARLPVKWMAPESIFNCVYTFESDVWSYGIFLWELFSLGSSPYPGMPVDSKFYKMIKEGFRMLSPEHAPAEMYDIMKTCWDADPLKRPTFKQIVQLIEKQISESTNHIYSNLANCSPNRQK
T2 sequence (P15056 with tags, fused parts or gaps V600E): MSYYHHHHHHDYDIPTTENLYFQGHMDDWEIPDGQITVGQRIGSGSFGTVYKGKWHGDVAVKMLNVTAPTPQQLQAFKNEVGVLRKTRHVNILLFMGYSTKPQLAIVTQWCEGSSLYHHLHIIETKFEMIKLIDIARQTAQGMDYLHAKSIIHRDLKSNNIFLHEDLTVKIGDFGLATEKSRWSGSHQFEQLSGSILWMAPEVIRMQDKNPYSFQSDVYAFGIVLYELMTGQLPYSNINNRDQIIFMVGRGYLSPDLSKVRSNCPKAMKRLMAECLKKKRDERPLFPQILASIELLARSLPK
T4 sequence (P11362 458-765 C488A/C584S): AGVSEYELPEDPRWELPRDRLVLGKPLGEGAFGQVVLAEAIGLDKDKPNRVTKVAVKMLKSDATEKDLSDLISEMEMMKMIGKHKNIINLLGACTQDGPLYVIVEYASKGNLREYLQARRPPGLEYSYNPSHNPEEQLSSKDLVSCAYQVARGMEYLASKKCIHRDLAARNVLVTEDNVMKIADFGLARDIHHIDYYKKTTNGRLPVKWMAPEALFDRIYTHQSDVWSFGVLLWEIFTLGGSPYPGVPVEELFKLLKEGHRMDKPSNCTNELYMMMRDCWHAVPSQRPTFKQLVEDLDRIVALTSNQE
T6 sequence (P07333 20-972): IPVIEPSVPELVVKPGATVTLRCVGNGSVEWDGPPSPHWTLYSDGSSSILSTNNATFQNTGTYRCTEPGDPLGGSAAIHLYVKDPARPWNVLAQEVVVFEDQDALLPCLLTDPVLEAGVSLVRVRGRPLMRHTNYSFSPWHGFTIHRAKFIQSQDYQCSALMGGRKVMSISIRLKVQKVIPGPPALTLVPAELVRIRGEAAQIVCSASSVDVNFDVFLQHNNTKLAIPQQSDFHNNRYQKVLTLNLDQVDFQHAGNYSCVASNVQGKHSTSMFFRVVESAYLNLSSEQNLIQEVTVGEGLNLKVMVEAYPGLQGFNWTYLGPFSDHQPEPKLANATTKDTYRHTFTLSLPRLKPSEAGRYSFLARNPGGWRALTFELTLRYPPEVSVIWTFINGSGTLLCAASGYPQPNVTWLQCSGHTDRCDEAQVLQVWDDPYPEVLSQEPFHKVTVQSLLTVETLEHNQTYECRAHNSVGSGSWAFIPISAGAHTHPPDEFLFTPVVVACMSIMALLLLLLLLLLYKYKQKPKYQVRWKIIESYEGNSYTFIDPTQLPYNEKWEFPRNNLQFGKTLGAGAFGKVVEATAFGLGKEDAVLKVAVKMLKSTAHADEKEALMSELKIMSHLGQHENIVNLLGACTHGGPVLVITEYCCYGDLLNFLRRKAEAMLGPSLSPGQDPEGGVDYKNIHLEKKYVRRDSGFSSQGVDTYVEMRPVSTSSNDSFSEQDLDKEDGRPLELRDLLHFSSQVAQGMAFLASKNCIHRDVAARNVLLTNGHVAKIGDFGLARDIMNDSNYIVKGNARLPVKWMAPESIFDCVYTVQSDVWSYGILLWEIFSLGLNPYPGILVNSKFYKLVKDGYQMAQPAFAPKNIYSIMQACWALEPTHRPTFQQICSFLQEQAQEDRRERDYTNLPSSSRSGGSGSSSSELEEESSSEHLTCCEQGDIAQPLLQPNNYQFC
Sequence of MAP4K4 (O95819 whole entry): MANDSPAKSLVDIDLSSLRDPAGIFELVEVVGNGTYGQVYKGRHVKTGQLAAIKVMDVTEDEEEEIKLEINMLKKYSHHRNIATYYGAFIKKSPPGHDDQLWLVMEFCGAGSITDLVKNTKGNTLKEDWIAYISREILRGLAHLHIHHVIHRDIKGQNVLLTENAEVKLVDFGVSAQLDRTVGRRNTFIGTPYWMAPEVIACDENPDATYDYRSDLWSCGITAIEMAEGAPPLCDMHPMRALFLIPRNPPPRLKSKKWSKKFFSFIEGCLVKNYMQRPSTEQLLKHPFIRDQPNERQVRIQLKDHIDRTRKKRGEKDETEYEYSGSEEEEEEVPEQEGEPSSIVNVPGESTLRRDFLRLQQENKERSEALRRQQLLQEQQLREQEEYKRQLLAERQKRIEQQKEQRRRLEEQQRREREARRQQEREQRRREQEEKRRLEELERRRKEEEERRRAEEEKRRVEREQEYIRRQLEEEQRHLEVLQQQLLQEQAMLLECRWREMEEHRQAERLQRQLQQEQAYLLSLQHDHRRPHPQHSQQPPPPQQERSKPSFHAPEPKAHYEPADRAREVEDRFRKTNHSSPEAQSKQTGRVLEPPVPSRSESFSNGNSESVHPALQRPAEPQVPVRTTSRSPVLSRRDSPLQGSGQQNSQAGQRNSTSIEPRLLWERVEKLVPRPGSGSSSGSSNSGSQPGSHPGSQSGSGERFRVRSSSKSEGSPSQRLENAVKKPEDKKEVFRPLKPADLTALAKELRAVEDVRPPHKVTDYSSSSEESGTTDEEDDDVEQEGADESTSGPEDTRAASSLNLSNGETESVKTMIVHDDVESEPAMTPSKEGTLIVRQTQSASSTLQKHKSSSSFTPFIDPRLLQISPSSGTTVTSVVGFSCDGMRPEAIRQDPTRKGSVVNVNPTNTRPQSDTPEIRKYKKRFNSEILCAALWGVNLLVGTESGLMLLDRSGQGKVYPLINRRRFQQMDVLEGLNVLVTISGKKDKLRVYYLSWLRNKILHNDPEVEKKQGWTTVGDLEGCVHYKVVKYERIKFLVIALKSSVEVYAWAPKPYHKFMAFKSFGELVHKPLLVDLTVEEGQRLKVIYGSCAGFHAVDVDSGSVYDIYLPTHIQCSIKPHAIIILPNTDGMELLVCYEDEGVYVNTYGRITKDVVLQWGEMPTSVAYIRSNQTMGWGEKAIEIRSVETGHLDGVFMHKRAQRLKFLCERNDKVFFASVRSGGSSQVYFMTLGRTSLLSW
T8 sequence (P15056 whole entry): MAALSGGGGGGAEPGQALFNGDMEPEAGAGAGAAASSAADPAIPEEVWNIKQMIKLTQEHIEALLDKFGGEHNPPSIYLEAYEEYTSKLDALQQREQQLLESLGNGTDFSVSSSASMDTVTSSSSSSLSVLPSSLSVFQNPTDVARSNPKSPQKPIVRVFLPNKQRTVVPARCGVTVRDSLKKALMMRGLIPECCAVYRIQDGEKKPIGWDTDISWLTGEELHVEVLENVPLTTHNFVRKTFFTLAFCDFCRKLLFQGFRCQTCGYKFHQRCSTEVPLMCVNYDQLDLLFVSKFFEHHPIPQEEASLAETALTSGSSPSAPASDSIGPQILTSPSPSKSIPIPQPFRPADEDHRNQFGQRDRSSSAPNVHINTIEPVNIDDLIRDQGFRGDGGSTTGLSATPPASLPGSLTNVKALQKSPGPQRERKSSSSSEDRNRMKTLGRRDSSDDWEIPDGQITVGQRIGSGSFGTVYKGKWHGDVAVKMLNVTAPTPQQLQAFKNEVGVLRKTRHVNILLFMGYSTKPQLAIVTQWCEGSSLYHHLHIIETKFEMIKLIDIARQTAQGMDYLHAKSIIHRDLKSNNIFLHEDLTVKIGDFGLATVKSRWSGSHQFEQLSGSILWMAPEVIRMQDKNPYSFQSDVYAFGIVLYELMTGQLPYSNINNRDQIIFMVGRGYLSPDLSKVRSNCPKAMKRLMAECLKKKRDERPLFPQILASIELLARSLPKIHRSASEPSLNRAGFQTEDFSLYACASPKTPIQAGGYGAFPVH
T3 sequence (P04049 whole entry): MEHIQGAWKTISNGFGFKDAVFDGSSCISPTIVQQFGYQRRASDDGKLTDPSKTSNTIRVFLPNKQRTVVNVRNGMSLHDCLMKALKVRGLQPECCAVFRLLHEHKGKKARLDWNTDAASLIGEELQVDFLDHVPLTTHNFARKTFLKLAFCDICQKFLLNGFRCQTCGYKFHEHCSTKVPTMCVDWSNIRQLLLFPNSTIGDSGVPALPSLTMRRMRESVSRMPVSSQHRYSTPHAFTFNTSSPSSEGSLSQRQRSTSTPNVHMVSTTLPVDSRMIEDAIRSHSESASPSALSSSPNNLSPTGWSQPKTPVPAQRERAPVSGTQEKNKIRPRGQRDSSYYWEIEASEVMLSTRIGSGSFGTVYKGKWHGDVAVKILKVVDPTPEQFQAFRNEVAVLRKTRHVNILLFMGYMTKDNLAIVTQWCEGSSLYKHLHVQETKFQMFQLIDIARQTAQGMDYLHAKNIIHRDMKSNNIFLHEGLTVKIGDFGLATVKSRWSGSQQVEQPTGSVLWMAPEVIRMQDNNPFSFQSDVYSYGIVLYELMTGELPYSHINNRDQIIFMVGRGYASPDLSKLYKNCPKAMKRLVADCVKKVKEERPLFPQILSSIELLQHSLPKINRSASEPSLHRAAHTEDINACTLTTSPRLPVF
T9 sequence (Q05397 411-686): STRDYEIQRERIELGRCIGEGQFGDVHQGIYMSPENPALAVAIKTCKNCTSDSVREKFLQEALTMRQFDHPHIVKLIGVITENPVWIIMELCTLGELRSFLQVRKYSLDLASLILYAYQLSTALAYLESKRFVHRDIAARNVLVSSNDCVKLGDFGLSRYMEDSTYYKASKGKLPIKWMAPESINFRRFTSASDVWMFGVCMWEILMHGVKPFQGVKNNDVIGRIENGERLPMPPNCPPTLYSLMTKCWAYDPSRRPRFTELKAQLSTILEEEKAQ

COc1ccc(-c2c[nH]c3ncccc23)c(OC)c1 [Compound P-0477]
IC50 (Flt1): ≤ 10 µM | IC50 (MAP4K4): ≤ 10 µM

Cc1[nH]c2ncccc2c1-c1ccc(-c2ccccc2)cc1 [Compound P-0601]
IC50 (MAP4K4): ≤ 10 µM

COc1cccc(S(=O)(=O)Nc2ccc(F)c(C(=O)c3c[nH]c4ncccc34)c2F)c1 [Compound P-0971, N-[2,4-difluoro-3-(1H-pyrrolo[2,3-b]pyridine-3-carbonyl)phenyl]-3-methoxy-benzenesulfonamide]
IC50 (B-Raf V600E): ≤ 10 µM | IC50 (MAP4K4): ≤ 10 µM | IC50 (c-Raf-1): ≤ 10 µM

NC(=O)c1ccc(-c2c(CN3CCOCC3)[nH]c3ncccc23)cc1 [Compound P-0695]
IC50 (MAP4K4): ≤ 10 µM

O=C(O)c1ccc(F)c(C(=O)c2c[nH]c3ncc(-c4cccnc4)cc23)c1F [Compound P-1017]
IC50 (FGFR1): ≤ 10 µM | IC50 (MAP4K4): ≤ 10 µM | IC50 (c-Raf-1): ≤ 10 µM

Cc1[nH]c2ncccc2c1-c1ccccc1 [Compound P-0488]
IC50 (MAP4K4): ≤ 10 µM

c1ccc(Cc2c[nH]c3ncccc23)cc1 [Compound P-0256]
IC50 (MAP4K4): ≤ 10 µM

O=C(c1cccc(OC(F)F)c1)c1c[nH]c2ncc(-c3cccnc3)cc12 [Compound P-1415, (3-Difluoromethoxy-phenyl)-(5-pyridin-3-yl-1H-pyrrolo[2,3-b]pyridin-3-yl)-methanone]
IC50 (FGFR1): ≤ 10 µM | IC50 (B-Raf V600E): ≤ 10 µM | IC50 (Kit): ≤ 10 µM | IC50 (Fms): ≤ 10 µM | IC50 (Flt1): ≤ 10 µM | IC50 (MAP4K4): ≤ 10 µM

COc1ccc(-c2c(C)[nH]c3ncccc23)cc1OC [Compound P-0862]
IC50 (MAP4K4): ≤ 10 µM

O=C(c1cccc(F)c1)c1c[nH]c2ncccc12 [Compound P-0367]
IC50 (Ret): ≤ 10 µM | IC50 (Kit): ≤ 10 µM | IC50 (MAP4K4): ≤ 10 µM

Fc1ccc(Cc2c[nH]c3ncccc23)cc1 [Compound P-0220]
IC50 (FGFR1): ≤ 10 µM | IC50 (MAP4K4): ≤ 10 µM

O=C(c1cc(Cl)cc(Cl)c1)c1c[nH]c2ncc(-c3cccnc3)cc12 [Compound P-1414, (3,5-Dichloro-phenyl)-(5-pyridin-3-yl-1H-pyrrolo[2,3-b]pyridin-3-yl)-methanone]
IC50 (B-Raf V600E): ≤ 10 µM | IC50 (Kit): ≤ 10 µM | IC50 (MAP4K4): ≤ 10 µM

O=C(c1cccnc1)c1c[nH]c2ncccc12 [Compound P-0518]
IC50 (MAP4K4): ≤ 10 µM

Clc1cccc(-c2c[nH]c3ncccc23)c1 [Compound P-0449]
IC50 (MAP4K4): ≤ 10 µM

Cc1[nH]c2ncccc2c1-c1ccncc1 [Compound P-0537]
IC50 (MAP4K4): ≤ 10 µM

O=C(O)/C=C/c1cccc(-c2cnc3[nH]cc(C(=O)c4cccc(OC(F)F)c4)c3c2)c1 [Compound P-1418, (E)-3-{3-[3-(3-Difluoromethoxy-benzoyl)-1H-pyrrolo[2,3-b]pyridin-5-yl]-phenyl}-acrylic acid]
IC50 (FGFR1): ≤ 10 µM | IC50 (B-Raf V600E): ≤ 10 µM | IC50 (Flt1): ≤ 10 µM | IC50 (MAP4K4): ≤ 10 µM

c1ccc(Oc2ccc(Cc3c[nH]c4ncccc34)cc2)cc1 [Compound P-0310]
IC50 (B-Raf): ≤ 10 µM | IC50 (Fak): ≤ 10 µM | IC50 (Yes): ≤ 10 µM | IC50 (Zap70): ≤ 10 µM

CS(=O)(=O)Nc1cccc(-c2cnc3[nH]cc(C(=O)c4cc(Cl)cc(Cl)c4)c3c2)c1 [Compound P-1429, N-{3-[3-(3,5-Dichloro-benzoyl)-1H-pyrrolo[2,3-b]pyridin-5-yl]-phenyl}-methanesulfonamide]
IC50 (FGFR1): ≤ 10 µM | IC50 (B-Raf V600E): ≤ 10 µM | IC50 (Kit): ≤ 10 µM | IC50 (B-Raf): ≤ 10 µM | IC50 (Fms): ≤ 10 µM | IC50 (Flt1): ≤ 10 µM | IC50 (MAP4K4): ≤ 10 µM

Cc1cc(C(=O)c2c[nH]c3ncccc23)n(C)n1 [Compound P-0357]
IC50 (MAP4K4): ≤ 10 µM

CCOc1ccccc1-c1c[nH]c2ncccc12 [Compound P-0527]
IC50 (MAP4K4): ≤ 10 µM

O=C(c1ccccc1)c1c[nH]c2ncccc12 [Compound P-0402]
IC50 (Kit): ≤ 10 µM | IC50 (MAP4K4): ≤ 10 µM

COc1cc(OC)cc(C(=O)c2c[nH]c3ncc(-c4ccccc4)cc23)c1 [Compound P-1406, (3,5-Dimethoxy-phenyl)-(5-phenyl-1H-pyrrolo[2.3 b]pyridin-3-yl)-methanone]
IC50 (FGFR1): ≤ 10 µM | IC50 (Kit): ≤ 10 µM | IC50 (Fms): ≤ 10 µM | IC50 (Flt1): ≤ 10 µM | IC50 (MAP4K4): ≤ 10 µM

c1cnc2ccc(Nc3ccnc4[nH]ccc34)cc2c1 [Compound P-1042]
IC50 (MAP4K4): ≤ 10 µM
